# Experiments:
# Assay in all cases: Bliss excess, mean over the matrix (fraction); higher = more synergy
# 786-0 (Kidney Carcinoma) = tested on: 786-0 (Kidney Carcinoma)
# Procedure, shortened: (§1)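 Cell lines grown in DMEM/F12 or RPMI with 10% FBS were plated in 1536-well plates and held 24 hours at 37°C, 5% CO2 before 72 hours of exposure to two-drug dose matrices, with DMSO typically at 0.2%. CellTiter-Glo 2.0 luminescence gave viability, which was converted to inhibition. Vehicle wells were set to 0 and blank wells to 1. Combination Emax is the second-highest inhibition in the matrix, and Bliss excess is the observed combination effect minus the expected EA + EB − EA·EB, where EA and EB are the single-agent effects.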
# [1] = tested on: AN3-CA (Endometrial Carcinoma)
# Procedure, shortened: as §1
# [2] = tested on: CML-T1 (Chronic Myelogenous Leukemia)
# Procedure, shortened: as §1
# [3] = tested on: Calu-6 (Non-Small Cell Lung Carcinoma)
# Procedure, shortened: as §1
# [4] = tested on: Caov-3 (Ovarian Carcinoma)
# Procedure, shortened: as §1
# [5] = tested on: EB-3 (Burkitt's Lymphoma)
# Procedure, shortened: as §1
# ES-2 (Ovarian Carcinoma) = tested on: ES-2 (Ovarian Carcinoma)
# Procedure, shortened: as §1
# [6] = tested on: FLO-1 (Esophageal Adenocarcinoma)
# Procedure, shortened: as §1
# [7] = tested on: HTC-C3 (Thyroid Gland Carcinoma)
# Procedure, shortened: as §1
# HuO-3N1 (Osteosarcoma) = tested on: HuO-3N1 (Osteosarcoma)
# Procedure, shortened: as §1
# [8] = tested on: LAMA-84 (Chronic Myelogenous Leukemia)
# Procedure, shortened: as §1
# [9] = tested on: NCI-H1563 (Lung Adenocarcinoma)
# Procedure, shortened: as §1
# [10] = tested on: NCI-H1755 (Lung Adenocarcinoma)
# Procedure, shortened: as §1
# [11] = tested on: NCI-H196 (Small Cell Lung Carcinoma)
# Procedure, shortened: as §1
# [12] = tested on: PANC-02-03 (Pancreatic Carcinoma)
# Procedure, shortened: as §1
# [13] = tested on: RPMI-8866 (Chronic Myelogenous Leukemia)
# Procedure, shortened: as §1
# RT4 (Bladder Carcinoma) = tested on: RT4 (Bladder Carcinoma)
# Procedure, shortened: as §1
# [14] = tested on: SJRH30 (Rhabdomyosarcoma)
# Procedure, shortened: as §1
# [15] = tested on: SK-MM-2 (Plasma Cell Myeloma)
# Procedure, shortened: as §1
# [16] = tested on: SNU-175 (Colorectal Carcinoma)
# Procedure, shortened: as §1
SMILES,Bliss excess (786-0 (Kidney Carcinoma)),Bliss excess [1],Bliss excess [2],Bliss excess [3],Bliss excess [4],Bliss excess [5],Bliss excess (ES-2 (Ovarian Carcinoma)),Bliss excess [6],Bliss excess [7],Bliss excess (HuO-3N1 (Osteosarcoma)),Bliss excess [8],Bliss excess [9],Bliss excess [10],Bliss excess [11],Bliss excess [12],Bliss excess [13],Bliss excess (RT4 (Bladder Carcinoma)),Bliss excess [14],Bliss excess [15],Bliss excess [16]
"CN(C)CCCOc1ccc(-c2ccc3ncc4c(c3c2)n(C2CCOCC2)c(=O)n4C)cn1 [AZD0156] + C=CCn1c(=O)c2cnc(Nc3ccc(N4CCN(C)CC4)cc3)nc2n1-c1cccc(C(C)(C)O)n1 [AZD1775] (first compound max 1 µM, partner max 1 µM)",0.0005,-0.0041,-0.0271,-0.0479,-0.0434,-0.0289,-0.0249,0.0285,-0.0187,-0.0505,-0.037,-0.0549,-0.0462,-0.0791,-0.026,-0.0175,-0.0136,-0.0467,0.0058,0.0169
"CN(C)CCCOc1ccc(-c2ccc3ncc4c(c3c2)n(C2CCOCC2)c(=O)n4C)cn1 [AZD0156] + CCN(CCO)CCCOc1ccc2c(Nc3cc(CC(=O)Nc4cccc(F)c4)[nH]n3)ncnc2c1 [AZD2811] (first compound max 1 µM, 7x7, partner max 1 µM)",-0.0107,-0.0019,0.0352,-0.0112,-0.0478,0.0304,-0.0163,-0.0376,-0.0198,-0.0225,-0.021,-0.006,-0.0132,-0.05,-0.0371,0.0518,-0.0063,0.0035,-0.0131,-0.0101
"CN(C)CCCOc1ccc(-c2ccc3ncc4c(c3c2)n(C2CCOCC2)c(=O)n4C)cn1 [AZD0156] + C[C@@H]1COCCN1C2=NC(=NC(=C2)C3(CC3)[S@](=N)(=O)C)C4=C5C=CNC5=NC=C4 [AZD6738] (first compound max 1 µM, 7x7, partner max 10 µM)",-0.0177,-0.0226,-0.0095,-0.0139,-0.026,-0.0035,-0.0217,0.0005,0.0193,-0.0046,0.0048,-0.0063,-0.0249,-0.0414,-0.0412,-0.0014,-0.0408,0.0408,-0.0524,0.0006
"C=CCn1c(=O)c2cnc(Nc3ccc(N4CCN(C)CC4)cc3)nc2n1-c1cccc(C(C)(C)O)n1 [AZD1775] + C[C@@H]1COCCN1C2=NC(=NC(=C2)C3(CC3)[S@](=N)(=O)C)C4=C5C=CNC5=NC=C4 [AZD6738] (first compound max 1 µM, partner max 10 µM)",0.109,-0.0159,0.0296,,-0.025,0.0002,0.0105,-0.0531,0.101,0.0162,0.0054,-0.0303,-0.0276,-0.0093,-0.0701,0.0078,-0.0068,0.0467,-0.0211,0.039
"C=CCn1c(=O)c2cnc(Nc3ccc(N4CCN(C)CC4)cc3)nc2n1-c1cccc(C(C)(C)O)n1 [AZD1775] + O=C(c1cc(Cc2n[nH]c(=O)c3ccccc23)ccc1F)N1CCN(C(=O)C2CC2)CC1 [Olaparib] (first compound max 1 µM, partner max 10 µM)",-0.0097,0.0003,0.0213,-0.0421,-0.0396,-0.0426,-0.0517,-0.0673,-0.0064,-0.0835,-0.0086,-0.0288,-0.0291,-0.0552,-0.0513,-0.0528,0.0107,-0.0057,-0.0471,-0.0028
"CCN(CCO)CCCOc1ccc2c(Nc3cc(CC(=O)Nc4cccc(F)c4)[nH]n3)ncnc2c1 [AZD2811] + C=CCn1c(=O)c2cnc(Nc3ccc(N4CCN(C)CC4)cc3)nc2n1-c1cccc(C(C)(C)O)n1 [AZD1775] (first compound max 1 µM, partner max 1 µM)",-0.0246,0.0276,0.0392,-0.0028,-0.0603,-0.071,-0.0111,-0.0162,-0.0174,-0.0504,0.0026,0.001,-0.0428,-0.0371,-0.0628,0.0714,0.0196,0.0089,-0.0005,-0.0108
"CCN(CCO)CCCOc1ccc2c(Nc3cc(CC(=O)Nc4cccc(F)c4)[nH]n3)ncnc2c1 [AZD2811] + C[C@@H]1COCCN1C2=NC(=NC(=C2)C3(CC3)[S@](=N)(=O)C)C4=C5C=CNC5=NC=C4 [AZD6738] (first compound max 1 µM, 7x7, partner max 10 µM)",-0.0465,-0.0315,0.0199,-0.0382,-0.0747,-0.0835,-0.0445,-0.0611,-0.0273,-0.0218,-0.0175,-0.0114,-0.0621,-0.0655,-0.101,-0.0271,-0.0318,-0.0079,-0.0732,-0.07
"CCN(CCO)CCCOc1ccc2c(Nc3cc(CC(=O)Nc4cccc(F)c4)[nH]n3)ncnc2c1 [AZD2811] + O=C(c1cc(Cc2n[nH]c(=O)c3ccccc23)ccc1F)N1CCN(C(=O)C2CC2)CC1 [Olaparib] (first compound max 1 µM, 7x7, partner max 10 µM)",-0.0274,-0.0011,0.029,0.0004,-0.0444,-0.0307,-0.0182,-0.0153,-0.0101,-0.0185,0.0269,-0.0221,0.0146,-0.0193,0.0133,0.147,0.0243,0.0189,-0.0256,-0.0141
"CN(CCO)CC[C@H](CSc1ccccc1)Nc1ccc(S(=O)(=O)NC(=O)c2ccc(N3CCC([C@@H](O)c4ccccc4-c4ccc(Cl)cc4)CC3)cc2)cc1S(=O)(=O)C(F)(F)F [AZD4320] + C1CN(CCC1(C(=O)N[C@@H](CCO)C2=CC=C(C=C2)Cl)N)C3=NC=NC4=C3C=CN4 [Capivasertib] (first compound max 1 µM, 7x7, partner max 3 µM)",-0.0318,-0.0186,0.0023,0.0004,-0.0309,-0.0462,-0.0346,-0.039,-0.0498,-0.0109,-0.0418,-0.0423,-0.0221,-0.0297,-0.0617,-0.0553,-0.0716,0.0085,-0.0077,-0.0205
"CN(CCO)CC[C@H](CSc1ccccc1)Nc1ccc(S(=O)(=O)NC(=O)c2ccc(N3CCC([C@@H](O)c4ccccc4-c4ccc(Cl)cc4)CC3)cc2)cc1S(=O)(=O)C(F)(F)F [AZD4320] + C=CCn1c(=O)c2cnc(Nc3ccc(N4CCN(C)CC4)cc3)nc2n1-c1cccc(C(C)(C)O)n1 [AZD1775] (first compound max 1 µM, partner max 1 µM)",-0.0685,-0.0004,-0.0082,0.0019,0.0779,-0.0269,0.0065,0.0293,0.08,-0.0135,0.083,-0.0024,-0.0201,0.0268,0.0045,0.0402,0.0755,0.0076,0.0011,-0.0371
"CN(CCO)CC[C@H](CSc1ccccc1)Nc1ccc(S(=O)(=O)NC(=O)c2ccc(N3CCC([C@@H](O)c4ccccc4-c4ccc(Cl)cc4)CC3)cc2)cc1S(=O)(=O)C(F)(F)F [AZD4320] + CCN(CCO)CCCOc1ccc2c(Nc3cc(CC(=O)Nc4cccc(F)c4)[nH]n3)ncnc2c1 [AZD2811] (first compound max 1 µM, 7x7, partner max 1 µM)",-0.0374,0.101,0.0624,-0.0023,0.0419,-0.0065,-0.0208,0.0895,-0.0348,-0.0051,0.0319,-0.0002,-0.0024,-0.0513,-0.0246,0.234,0.163,0.108,-0.0113,0.0362
"CN(CCO)CC[C@H](CSc1ccccc1)Nc1ccc(S(=O)(=O)NC(=O)c2ccc(N3CCC([C@@H](O)c4ccccc4-c4ccc(Cl)cc4)CC3)cc2)cc1S(=O)(=O)C(F)(F)F [AZD4320] + CN(C)CCCOc1ccc(-c2ccc3ncc4c(c3c2)n(C2CCOCC2)c(=O)n4C)cn1 [AZD0156] (first compound max 1 µM, 7x7, partner max 1 µM)",-0.0503,-0.0153,0.013,-0.0156,-0.0198,-0.0389,-0.0259,0.0007,-0.0185,-0.0021,-0.0089,-0.0496,-0.0164,-0.0414,-0.0553,-0.0756,-0.0057,0.0144,0.0468,-0.0219
"Cc1c2c(nn1C)CSCc1cc(n(C)n1)CSc1cc(c3ccccc3c1)OCCCc1c(C(=O)O)n(C)c3c-2c(Cl)ccc13 [AZD5991] + Cn1cnc2c(F)c(Nc3ccc(Br)cc3Cl)c(C(=O)NOCCO)cc21 [Selumetinib] (first compound max 1 µM, 7x7, partner max 3 µM)",0.0107,0.0158,0.0516,0.0572,0.0536,-0.0424,0.0389,-0.055,-0.0271,-0.0008,0.102,0.0158,0.0427,-0.0374,-0.003,-0.0462,0.0266,0.0386,-0.0194,
"CCc1c2c(nc3ccc(O)cc13)-c1cc3c(c(=O)n1C2)COC(=O)[C@]3(O)CC [SN-38] + O=C(c1cc(Cc2n[nH]c(=O)c3ccccc23)ccc1F)N1CCN(C(=O)C2CC2)CC1 [Olaparib] (first compound max 0.3 µM, 7x7, partner max 10 µM)",0.0937,,-0.0065,0.0211,0.0886,-0.0075,,0.0371,0.0591,0.075,0.0833,,0.0419,,0.0609,0.0155,0.0702,0.0591,-0.0056,0.0238
